Measured values published in ChEMBL document CHEMBL3217615, “Novel 3,5-bis(arylidiene)-4-piperidone based monocarbonyl analogs of curcumin: anticancer activity evaluation and mode of action study” (2014).

Tests used:
Assay type in all cases: functional
[1] = Growth inhibition of human OVCAR8 cells assessed as cell growth at 10^-5 M after 48 hrs by sulforhodamine B assay; details: OVCAR-8, 48 h, read-out: Activity
[2] = Growth inhibition of human OVCAR3 cells assessed as cell growth at 10^-5 M after 48 hrs by sulforhodamine B assay; details: OVCAR-3, 48 h, read-out: Activity
SK-MEL-5 [3] = assay: Growth inhibition of human SK-MEL-5 cells assessed as cell growth at 10^-5 M after 48 hrs by sulforhodamine B assay; details: SK-MEL-5, 48 h, read-out: Activity
M14 [4] = assay: Growth inhibition of human M14 cells assessed as cell growth at 10^-5 M after 48 hrs by sulforhodamine B assay; details: M14, 48 h, read-out: Activity
Malme-3M = assay: Growth inhibition of human MALME-3M cells assessed as cell growth at 10^-5 M after 48 hrs by sulforhodamine B assay; details: read-out: Activity
[5] = Growth inhibition of human LOXIMVI cells assessed as cell growth at 10^-5 M after 48 hrs by sulforhodamine B assay; details: LOX IMVI, read-out: Activity
SNB-75 = assay: Growth inhibition of human SNB75 cells assessed as cell growth at 10^-5 M after 48 hrs by sulforhodamine B assay; details: SNB-75, 48 h, read-out: Activity
[6] = Growth inhibition of human SF539 cells assessed as cell growth at 10^-5 M after 48 hrs by sulforhodamine B assay; details: SF-539, 48 h, read-out: Activity
SF-268 = assay: Growth inhibition of human SF268 cells assessed as cell growth at 10^-5 M after 48 hrs by sulforhodamine B assay; details: SF-268, 48 h, read-out: Activity
COLO 205 [7] = assay: Growth inhibition of human COLO205 cells assessed as cell growth at 10^-5 M after 48 hrs by sulforhodamine B assay; details: COLO 205, 48 h, read-out: Activity
NCI-H23 = assay: Growth inhibition of human NCI-H23 cells assessed as cell growth at 10^-5 M after 48 hrs by sulforhodamine B assay; details: NCI-H23, 48 h, read-out: Activity
HOP-62 = assay: Growth inhibition of human HOP62 cells assessed as cell growth at 10^-5 M after 48 hrs by sulforhodamine B assay; details: HOP-62, 48 h, read-out: Activity
[8] = Growth inhibition of human MOLT4 cells assessed as cell growth at 10^-5 M after 48 hrs by sulforhodamine B assay; details: MOLT-4, 48 h, read-out: Activity
K562 = assay: Growth inhibition of human K562 cells assessed as cell growth at 10^-5 M after 48 hrs by sulforhodamine B assay; details: K562, 48 h, read-out: Activity
PC-3 = assay: Growth inhibition of human PC3 cells assessed as cell growth at 10^-5 M after 48 hrs by sulforhodamine B assay; details: PC-3, 48 h, read-out: Activity
[9] = Growth inhibition of human UO31 cells assessed as cell growth at 10^-5 M after 48 hrs by sulforhodamine B assay; details: UO-31, 48 h, read-out: Activity
TK-10 = assay: Growth inhibition of human TK10 cells assessed as cell growth at 10^-5 M after 48 hrs by sulforhodamine B assay; details: TK-10, 48 h, read-out: Activity
[10] = Growth inhibition of human RXF393 cells assessed as cell growth at 10^-5 M after 48 hrs by sulforhodamine B assay; details: RXF 393, 48 h, read-out: Activity
SK-OV-3 [11] = assay: Growth inhibition of human SKOV3 cells assessed as cell growth at 10^-5 M after 48 hrs by sulforhodamine B assay; details: SK-OV-3, 48 h, read-out: Activity
SK-MEL-5 [12] = assay: Growth inhibition of human SK-MEL-5 cells assessed as cell growth at 10^-6 M after 48 hrs by sulforhodamine B assay; details: SK-MEL-5, 48 h, read-out: Activity
MDA-MB-231 = assay: Growth inhibition of human MDA-MB-231 cells assessed as cell growth at 10^-6 M after 48 hrs by sulforhodamine B assay; details: MDA-MB-231, 48 h, read-out: Activity
ACHN = assay: Growth inhibition of human ACHN cells assessed as cell growth at 10^-6 M after 48 hrs by sulforhodamine B assay; details: read-out: Activity
786-0 = assay: Growth inhibition of human 786-0 cells assessed as cell growth at 10^-4 M after 48 hrs by sulforhodamine B assay; details: 786-0, 48 h, read-out: Activity
COLO 205 [13] = assay: Growth inhibition of human COLO205 cells assessed as cell growth at 10^-4 M after 48 hrs by sulforhodamine B assay; details: COLO 205, 48 h, read-out: Activity
SK-MEL-5 [14] = assay: Growth inhibition of human SK-MEL-5 cells assessed as cell growth at 10^-8 M after 48 hrs by sulforhodamine B assay; details: SK-MEL-5, 48 h; for growth at 0.01 µM: read-out: Activity; for CC50: read-out: pLC50 (the source's name) (converted); for TGI: read-out: pTGI (converted)
M14 [15] = assay: Growth inhibition of human M14 cells assessed as cell growth at 10^-8 M after 48 hrs by sulforhodamine B assay; details: M14, 48 h; for growth at 0.01 µM: read-out: Activity; for CC50: read-out: pLC50 (the source's name) (converted); for TGI: read-out: pTGI (converted)
[16] = Growth inhibition of human SF539 cells assessed as cell growth at 10^-8 M after 48 hrs by sulforhodamine B assay; details: SF-539, 48 h; for growth at 0.01 µM: read-out: Activity; for TGI: read-out: pTGI (converted)
[17] = Growth inhibition of human OVCAR8 cells after 48 hrs by sulforhodamine B assay; details: OVCAR-8, 48 h; for CC50: read-out: LC50 (the source's name)
HT-29 = assay: Growth inhibition of human HT-29 cells after 48 hrs by sulforhodamine B assay; details: HT-29, 48 h; for CC50: read-out: LC50 (the source's name)
[18] = Growth inhibition of human OVCAR3 cells assessed as cell growth at 10^-7 M after 48 hrs by sulforhodamine B assay; details: OVCAR-3, 48 h, read-out: Activity
SW-620 = assay: Growth inhibition of human SW620 cells assessed as cell growth at 10^-7 M after 48 hrs by sulforhodamine B assay; details: SW-620, 48 h, read-out: Activity
NCI-H522 = assay: Growth inhibition of human NCI-H522 cells assessed as cell growth at 10^-7 M after 48 hrs by sulforhodamine B assay; details: NCI-H522, 48 h, read-out: Activity
SK-OV-3 [19] = assay: Growth inhibition of human SKOV3 cells assessed as cell growth at 10^-8 M after 48 hrs by sulforhodamine B assay; details: SK-OV-3, 48 h; for growth at 0.01 µM: read-out: Activity; for TGI: read-out: pTGI (converted)
[20] = Growth inhibition of human NCI-ADR-RES cells assessed as cell growth at 10^-8 M after 48 hrs by sulforhodamine B assay; details: for growth at 0.01 µM: read-out: Activity; for TGI: read-out: pTGI (converted)

## O=C1/C(=C/c2c(Cl)cccc2Cl)CN(S(=O)(=O)c2ccccc2)C/C1=C\c1c(Cl)cccc1Cl
[1]
  growth at 10 µM: 77.3%
[2]
  growth at 10 µM: 73.9%
SK-MEL-5 [3]
  growth at 10 µM: 85.3%
M14 [4]
  growth at 10 µM: 66.3%
Malme-3M
  growth at 10 µM: 90%
[5]
  growth at 10 µM: 78%
SNB-75
  growth at 10 µM: 66.2%
[6]
  growth at 10 µM: 99.9%
SF-268
  growth at 10 µM: 78.6%
COLO 205 [7]
  growth at 10 µM: 92.4%
NCI-H23
  growth at 10 µM: 82.6%
HOP-62
  growth at 10 µM: 100%
[8]
  growth at 10 µM: 52.8%
K562
  growth at 10 µM: 77.8%
PC-3
  growth at 10 µM: 57.5%
[9]
  growth at 10 µM: 73.7%
TK-10
  growth at 10 µM: 101%
[10]
  growth at 10 µM: 95.3%
SK-OV-3 [11]
  growth at 10 µM: 91.9%

## Cc1ccc(S(=O)(=O)N2C/C(=C\c3c(Cl)cccc3Cl)C(=O)/C(=C/c3c(Cl)cccc3Cl)C2)cc1
[1]
  growth at 10 µM: 79.6%
[2]
  growth at 10 µM: 84%
SK-MEL-5 [3]
  growth at 10 µM: 85%
M14 [4]
  growth at 10 µM: 79.1%
Malme-3M
  growth at 10 µM: 89%
[5]
  growth at 10 µM: 79.4%
SNB-75
  growth at 10 µM: 65.2%
[6]
  growth at 10 µM: 106%
SF-268
  growth at 10 µM: 83.6%
COLO 205 [7]
  growth at 10 µM: 110%
NCI-H23
  growth at 10 µM: 97.7%
HOP-62
  growth at 10 µM: 94.5%
[8]
  growth at 10 µM: 68.7%
K562
  growth at 10 µM: 81.6%
PC-3
  growth at 10 µM: 67.3%
[9]
  growth at 10 µM: 72.5%
TK-10
  growth at 10 µM: 115%
[10]
  growth at 10 µM: 101%
SK-OV-3 [11]
  growth at 10 µM: 93.7%

## O=C1/C(=C/c2ccc(Cl)cc2Cl)CN(S(=O)(=O)c2ccccc2)C/C1=C\c1ccc(Cl)cc1Cl
SK-MEL-5 [12]
  growth at 1 µM: 94%
[1]
  growth at 10 µM: -9%
[2]
  growth at 10 µM: -67%
SK-MEL-5 [3]
  growth at 10 µM: 47%
M14 [4]
  growth at 10 µM: 17%
Malme-3M
  growth at 10 µM: -21%
[5]
  growth at 10 µM: -58.7%
SNB-75
  growth at 10 µM: -6%
[6]
  growth at 10 µM: -54.1%
SF-268
  growth at 10 µM: 4.96%
COLO 205 [7]
  growth at 10 µM: -38%
NCI-H23
  growth at 10 µM: -37.6%
HOP-62
  growth at 10 µM: -2.25%
[8]
  growth at 10 µM: -2%
K562
  growth at 10 µM: 0.79%
MDA-MB-231
  growth at 1 µM: 26%
ACHN
  growth at 1 µM: 47%
786-0
  growth at 100 µM: -93%
COLO 205 [13]
  growth at 100 µM: -25%
PC-3
  growth at 10 µM: -25%
[9]
  growth at 10 µM: -63%
[10]
  growth at 10 µM: -87%
SK-OV-3 [11]
  growth at 10 µM: 44%
SK-MEL-5 [14]
  growth at 0.01 µM: 94%
  CC50: > 100 µM
  TGI: > 100 µM
M14 [15]
  GI50: 3.63 µM
  growth at 0.01 µM: 102%
  CC50: > 100 µM
  TGI: > 100 µM
[16]
  GI50: 0.427 µM
  LC50: > 100 µM
  growth at 0.01 µM: 98%
  TGI: 2.09 µM
[17]
  GI50: 0.286 µM
  TGI: 0.958 µM
  CC50: > 100 µM
HT-29
  GI50: 0.293 µM
  TGI: 0.843 µM
  CC50: > 100 µM
[18]
  growth at 0.1 µM: 108%
SW-620
  growth at 0.1 µM: 96%
NCI-H522
  growth at 0.1 µM: 97%
SK-OV-3 [19]
  GI50: 7.94 µM
  LC50: > 100 µM
  growth at 0.01 µM: 109%
  TGI: > 100 µM
[20]
  GI50: 1.38 µM
  LC50: > 100 µM
  growth at 0.01 µM: 105%
  TGI: > 100 µM

## Cc1ccc(S(=O)(=O)N2C/C(=C\c3cc(F)cc(F)c3)C(=O)/C(=C/c3cc(F)cc(F)c3)C2)cc1
SK-MEL-5 [12]
  growth at 1 µM: 3%
[1]
  growth at 10 µM: -44%
[2]
  growth at 10 µM: -84%
SK-MEL-5 [3]
  growth at 10 µM: -92%
M14 [4]
  growth at 10 µM: -68%
Malme-3M
  growth at 10 µM: -75%
[5]
  growth at 10 µM: -98%
SNB-75
  growth at 10 µM: -41.6%
[6]
  growth at 10 µM: -72%
SF-268
  growth at 10 µM: -43%
COLO 205 [7]
  growth at 10 µM: -73%
NCI-H23
  growth at 10 µM: -33%
HOP-62
  growth at 10 µM: -60%
[8]
  growth at 10 µM: -17%
K562
  growth at 10 µM: -19%
MDA-MB-231
  growth at 1 µM: -11%
ACHN
  growth at 1 µM: -26%
786-0
  growth at 100 µM: -95%
COLO 205 [13]
  growth at 100 µM: -95%
PC-3
  growth at 10 µM: -60.3%
[9]
  growth at 10 µM: -92%
TK-10
  growth at 10 µM: -58%
[10]
  growth at 10 µM: -88%
SK-OV-3 [11]
  growth at 10 µM: -26%
SK-MEL-5 [14]
  GI50: 0.288 µM
  growth at 0.01 µM: 98%
  CC50: 3.63 µM
  TGI: 1.07 µM
M14 [15]
  GI50: 0.363 µM
  growth at 0.01 µM: 103%
  CC50: 5.89 µM
  TGI: 1.41 µM
[16]
  GI50: 1.2 µM
  LC50: 6.76 µM
  growth at 0.01 µM: 94%
  TGI: 2.88 µM
[17]
  GI50: 0.301 µM
  TGI: 1.77 µM
  CC50: 16.3 µM
HT-29
  GI50: 0.229 µM
  TGI: 0.638 µM
  CC50: 3.19 µM
[18]
  growth at 0.1 µM: 112%
SW-620
  growth at 0.1 µM: 42%
NCI-H522
  growth at 0.1 µM: 102%
SK-OV-3 [19]
  GI50: 1.82 µM
  LC50: 37.2 µM
  growth at 0.01 µM: 103%
  TGI: 5.62 µM
[20]
  GI50: 0.437 µM
  LC50: 75.9 µM
  growth at 0.01 µM: 104%
  TGI: 10.2 µM
